Source: US10959432B2, “Microbiocidal oxadiazole derivatives” (Syngenta Participations AG, priority 2016, dated 2021)

Assays:
[1] = tested on: Glomerella laqenarium (Colletotrichum lagenarium); assay: Fungicidal activity against Glomerella lagenarium (Colletotrichum lagenarium) liquid culture / cucumber / preventative (anthracnose); assay type: cell-based; conditions: Colletotrichum orbiculare; 20 ppm in the applied formulation; liquid culture in PDB, 24° C., 3 to 4 days after application; read-out: disease control compared to untreated control (inhibition of growth measured photometrically)
Outline: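 Cryostored conidia mixed into potato dextrose broth and added to test compound (from DMSO solution) in microtiter plates. Incubated at 24 °C; growth inhibition read photometrically 3 to 4 days after application, as percent activity versus untreated check.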

Phakopsora pachyrhizi = assay: Fungicidal activity against Phakopsora pachyrhizi / soybean / leaf disc preventative (Asian soybean rust); assay type: in vivo; conditions: foliar, 200 ppm in the applied formulation, soybean leaf disks, preventative (inoculated one day after application), assessed 12 to 14 days after application, read-out: disease control compared to untreated control leaf disks
Outline: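 Soybean leaf discs on water agar sprayed with formulated compound diluted in water; spore suspension sprayed on lower leaf surface one day later. Incubated 24-36 h dark at 20° C, 75% rh, then 20° C, 12 h light/day, 75% rh. Percent disease control versus untreated scored 12 to 14 days after application.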

[2] = tested on: Puccinia recondita f. sp. tritici; assay: Fungicidal activity against Puccinia recondita f. sp. tritici / wheat / leaf disc preventative (brown rust); assay type: in vivo; conditions: foliar, 200 ppm in the applied formulation, wheat leaf segments cv. Kanzler, preventative (inoculated 1 day after application), assessed 7 to 9 days after application, read-out: disease control compared to untreated control leaf disks
Outline: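 Wheat cv. Kanzler leaf segments on agar sprayed with formulated compound diluted in water, inoculated with P. recondita spores 1 day later. Incubated at 19C, 75% rh, 12 h light/12 h dark; scored 7 to 9 days after application as percent disease control versus untreated segments. Test rate 200 ppm.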

Uromyces viciae-fabae = assay: Fungicidal activity against Uromyces viciae-fabae / field bean / leaf disc preventative (faba-bean rust); assay type: in vivo; conditions: foliar, 288 h, 100 ppm in the applied formulation, field bean leaf discs, preventative (inoculated two hours after application), assessed 12 days after application, read-out: disease control compared to untreated control leaf discs
Outline: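 Field bean leaf discs on water agar treated with 10 μl compound in acetone plus spreader, then spray-inoculated on the lower surface with Uromyces viciae-fabae spores 2 h later. Incubation at 22 °C, 18 h day, 70% RH; percent disease control versus untreated scored 12 days after application, compounds at 100 ppm.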

[3] = tested on: Puccinia recondita f. sp. tritici; assay: Fungicidal activity against Puccinia recondita f. sp. tritici / wheat / leaf disc curative (brown rust); assay type: in vivo; conditions: foliar, 200 ppm in the applied formulation, wheat leaf segments cv. Kanzler, curative (applied 1 day after inoculation), assessed 6 to 8 days after application, read-out: disease control compared to untreated control leaf disks
Outline: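 Wheat cv. Kanzler leaf segments on agar, spore-inoculated, held dark at 19° C./75% RH; formulated compound in water sprayed 1 day post-inoculation (curative). Incubated 19° C., 75% RH, 12 h light/12 h dark; percent disease control vs untreated scored 6 to 8 days after application.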

O=C(NCC1COCCO1)c1ccc(-c2noc(C(F)(F)F)n2)cc1 (centres unmarked) [Compound 1a.2, N-(1,4-dioxan-2-ylmethyl)-4-[5-(trifluoromethyl)-1,2,4-oxadiazol-3-yl]benzamide]
≥ 80%: inhibition at 20 ppm [1] | pest or weed control at 200 ppm (Phakopsora pachyrhizi) | pest or weed control at 200 ppm [2] | pest or weed control at 100 ppm (Uromyces viciae-fabae) | pest or weed control at 200 ppm [3]

CON1CCC(N(C)C(=O)c2ccc(-c3noc(C(F)(F)F)n3)cc2)CC1 [Compound 1a.3, N-(1-methoxy-4-piperidyl)-N-methyl-4-[5-(trifluoromethyl)-1,2,4-oxadiazol-3-yl]benzamide]
≥ 80%: inhibition at 20 ppm [1] | pest or weed control at 200 ppm [2] | pest or weed control at 100 ppm (Uromyces viciae-fabae) | pest or weed control at 200 ppm [3]

CCN(C(=O)c1ccc(-c2noc(C(F)(F)F)n2)cc1)C1CCN(OC)CC1 [Compound 1a.4, N-ethyl-N-(1-methoxy-4-piperidyl)-4-[5-(trifluoromethyl)-1,2,4-oxadiazol-3-yl]benzamide]
≥ 80%: inhibition at 20 ppm [1] | pest or weed control at 200 ppm [2] | pest or weed control at 100 ppm (Uromyces viciae-fabae) | pest or weed control at 200 ppm [3]

CCCN(C(=O)c1ccc(-c2noc(C(F)(F)F)n2)cc1)C1CCN(OC)CC1 [Compound 1a.5, N-(1-methoxy-4-piperidyl)-N-propyl-4-[5-(trifluoromethyl)-1,2,4-oxadiazol-3-yl]benzamide]
≥ 80%: inhibition at 20 ppm [1] | pest or weed control at 100 ppm (Uromyces viciae-fabae) | pest or weed control at 200 ppm [3]

CN(CC1OCCO1)C(=O)c1ccc(-c2noc(C(F)(F)F)n2)cc1F [Compound 1b.2, N-(1,3-dioxolan-2-ylmethyl)-2-fluoro-N-methyl-4-[5-(trifluoromethyl)-1,2,4-oxadiazol-3-yl]benzamide]
≥ 80%: pest or weed control at 200 ppm (Phakopsora pachyrhizi) | pest or weed control at 200 ppm [2] | pest or weed control at 100 ppm (Uromyces viciae-fabae) | pest or weed control at 200 ppm [3]

O=C(NC1CCCSC1)c1ccc(-c2noc(C(F)(F)F)n2)cc1F (centres unmarked) [Compound 1b.5, 2-fluoro-N-tetrahydrothiopyran-3-yl-4-[5-(trifluoromethyl)-1,2,4-oxadiazol-3-yl]benzamide]
≥ 80%: inhibition at 20 ppm [1] | pest or weed control at 200 ppm (Phakopsora pachyrhizi) | pest or weed control at 200 ppm [2] | pest or weed control at 100 ppm (Uromyces viciae-fabae) | pest or weed control at 200 ppm [3]

CC1(C)OCC(CNC(=O)c2ccc(-c3noc(C(F)(F)F)n3)cc2F)O1 (centres unmarked) [Compound 1b.6, N-[(2,2-dimethyl-1,3-dioxolan-4-yl)methyl]-2-fluoro-4-[5-(trifluoromethyl)-1,2,4-oxadiazol-3-yl]benzamide]
≥ 80%: pest or weed control at 200 ppm (Phakopsora pachyrhizi) | pest or weed control at 200 ppm [2] | pest or weed control at 100 ppm (Uromyces viciae-fabae) | pest or weed control at 200 ppm [3]

CN(CC1COCCO1)C(=O)c1ccc(-c2noc(C(F)(F)F)n2)cc1F (centres unmarked) [Compound 1b.9, N-(1,4-dioxan-2-ylmethyl)-2-fluoro-N-methyl-4-[5-(trifluoromethyl)-1,2,4-oxadiazol-3-yl]benzamide]
≥ 80%: inhibition at 20 ppm [1] | pest or weed control at 200 ppm (Phakopsora pachyrhizi) | pest or weed control at 200 ppm [2] | pest or weed control at 100 ppm (Uromyces viciae-fabae) | pest or weed control at 200 ppm [3]

O=C(NCC1COCCO1)c1ccc(-c2noc(C(F)(F)F)n2)cc1Cl (centres unmarked) [Compound 1b.13, 2-chloro-N-(1,4-dioxan-2-ylmethyl)-4-[5-(trifluoromethyl)-1,2,4-oxadiazol-3-yl]benzamide]
≥ 80%: pest or weed control at 200 ppm [2] | pest or weed control at 100 ppm (Uromyces viciae-fabae) | pest or weed control at 200 ppm [3]

O=C(NCC1CCC1)c1ccc(-c2noc(C(F)(F)F)n2)cc1 [Compound 2a.3, N-(cyclobutylmethyl)-4-[5-(trifluoromethyl)-1,2,4-oxadiazol-3-yl]benzamide]
≥ 80%: pest or weed control at 200 ppm (Phakopsora pachyrhizi) | pest or weed control at 200 ppm [2] | pest or weed control at 100 ppm (Uromyces viciae-fabae) | pest or weed control at 200 ppm [3]

CC1(NC(=O)c2ccc(-c3noc(C(F)(F)F)n3)cc2)CCC1 [Compound 2a.4, N-(1-methylcyclobutyl)-4-[5-(trifluoromethyl)-1,2,4-oxadiazol-3-yl]benzamide]
≥ 80%: pest or weed control at 200 ppm (Phakopsora pachyrhizi) | pest or weed control at 200 ppm [2] | pest or weed control at 100 ppm (Uromyces viciae-fabae) | pest or weed control at 200 ppm [3]

O=C(NC1CCCC1(F)F)c1ccc(-c2noc(C(F)(F)F)n2)cc1 (centres unmarked) [Compound 2a.9, N-(2,2-difluorocyclopentyl)-4-[5-(trifluoromethyl)-1,2,4-oxadiazol-3-yl]benzamide]
≥ 80%: inhibition at 20 ppm [1] | pest or weed control at 200 ppm (Phakopsora pachyrhizi) | pest or weed control at 200 ppm [2] | pest or weed control at 100 ppm (Uromyces viciae-fabae) | pest or weed control at 200 ppm [3]

O=C(NC1CCC1)c1ccc(-c2noc(C(F)(F)F)n2)cc1F [Compound 2b.3, N-cyclobutyl-2-fluoro-4-[5-(trifluoromethyl)-1,2,4-oxadiazol-3-yl]benzamide]
≥ 80%: inhibition at 20 ppm [1] | pest or weed control at 200 ppm (Phakopsora pachyrhizi) | pest or weed control at 200 ppm [2] | pest or weed control at 100 ppm (Uromyces viciae-fabae) | pest or weed control at 200 ppm [3]

O=C(NCC1CCC1)c1ccc(-c2noc(C(F)(F)F)n2)cc1F [Compound 2b.11, N-(cyclobutylmethyl)-2-fluoro-4-[5-(trifluoromethyl)-1,2,4-oxadiazol-3-yl]benzamide]
≥ 80%: pest or weed control at 200 ppm (Phakopsora pachyrhizi) | pest or weed control at 200 ppm [2] | pest or weed control at 100 ppm (Uromyces viciae-fabae) | pest or weed control at 200 ppm [3]

CC1(NC(=O)c2ccc(-c3noc(C(F)(F)F)n3)cc2F)CCC1 [Compound 2b.12, 2-fluoro-N-(1-methylcyclobutyl)-4-[5-(trifluoromethyl)-1,2,4-oxadiazol-3-yl]benzamide]
≥ 80%: pest or weed control at 200 ppm (Phakopsora pachyrhizi) | pest or weed control at 200 ppm [2] | pest or weed control at 100 ppm (Uromyces viciae-fabae) | pest or weed control at 200 ppm [3]

O=C(NC1CCCC1(F)F)c1ccc(-c2noc(C(F)(F)F)n2)cc1F (centres unmarked) [Compound 2b.17, N-(2,2-difluorocyclopentyl)-2-fluoro-4-[5-(trifluoromethyl)-1,2,4-oxadiazol-3-yl]benzamide]
≥ 80%: pest or weed control at 200 ppm (Phakopsora pachyrhizi) | pest or weed control at 200 ppm [2] | pest or weed control at 100 ppm (Uromyces viciae-fabae) | pest or weed control at 200 ppm [3]

Cc1ccsc1CN(C)C(=O)c1ccc(-c2noc(C(F)(F)F)n2)cc1F [Compound 5b.3, 2-fluoro-N-methyl-N-[(3-methyl-2-thienyl)methyl]-4-[5-(trifluoromethyl)-1,2,4-oxadiazol-3-yl]benzamide]
≥ 80%: inhibition at 20 ppm [1] | pest or weed control at 200 ppm (Phakopsora pachyrhizi) | pest or weed control at 100 ppm (Uromyces viciae-fabae) | pest or weed control at 200 ppm [3]
